Read-outs that look alike come from different tables or passages of the source.
Tests used:
Type in all cases: in vivo
[1] = tested on: Spodoptera littoralis; assay: Spodoptera littoralis (Egyptian cotton leaf worm) leaf disc test; conditions: foliar, 72 h, application rate 200 ppm, cotton leaf discs sprayed, L1 larvae, 3 days after infestation, read-out: control (at least one of mortality, anti-feedant effect, growth inhibition)
Method in brief: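 Cotton leaf discs on agar were sprayed with aqueous dilutions of 10′000 ppm DMSO stocks, dried and infested with five L1 larvae. Mortality, anti-feedant effect and growth inhibition were scored against untreated samples 3 days after infestation. Control = any of these higher than untreated.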

[2] = tested on: Diabrotica Balteata; assay: Diabrotica balteata (corn root worm) maize sprout test; conditions: 96 h, read-out: control (mortality and growth inhibition)
Description: Diabrotica Balteata, (Corn Root Worm)
Maize sprouts, placed on an agar layer in 24-well microtiter plates were treated with aqueous test solutions prepared from 10′000 ppm DMSO stock solutions by spraying. After drying, the plates were infested with L2 larvae (6 to 10 per well). The samples were assessed for mortality and growth inhibition in comparison to untreated samples 4 days after infestation.

[3] = tested on: Plutella xylostella; assay: Plutella xylostella (diamond back moth) artificial diet test; conditions: 120 h, read-out: control (mortality and growth inhibition)
Description: Plutella xylostella (Diamond Back Moth):
24-well microtiter plates with artificial diet were treated with aqueous test solutions prepared from 10′000 ppm DMSO stock solutions by pipetting. After drying, the plates were infested with L2 larvae (10 to 15 per well). The samples were assessed for mortality and growth inhibition in comparison to untreated samples 5 days after infestation.

[4] = tested on: Thrips tabaci; assay: Thrips tabaci (onion thrips) leaf disc test; conditions: foliar, 144 h, read-out: control (mortality)
Description: Thrips tabaci (Onion Thrips):
(§1) Sunflower leaf discs were placed on agar in 24-well microtiter plates and sprayed with aqueous test solutions prepared from 10′000 ppm DMSO stock solutions. After drying the leaf discs were infested with a thrips population of mixed ages. The samples were assessed for mortality 6 days after infestation.

[5] = tested on: Myzus persicae; assay: Myzus persicae (green peach aphid) leaf disc test; conditions: foliar, 144 h, read-out: control (mortality)
Description: Myzus persicae (Green Peach Aphid):
Sunflower leaf discs were placed on agar in a 24-well microtiter plate and sprayed with test solutions at an application rate of 200 ppm. After drying, the leaf discs were infested with an aphid population of mixed ages. After an incubation period of 6 DAT, samples were checked for mortality.

[6] = tested on: Euschistus heros; assay: Euschistus heros (neotropical brown stink bug) soybean leaf test; conditions: 120 h, read-out: control (mortality and growth inhibition)
Description: Euschistus heros (Neotropical Brown Stink Bug):
Soybean leaves on agar in 24-well microtiter plates were sprayed with aqueous test solutions prepared from 10′000 ppm DMSO stock solutions. After drying the leaves were infested with N2 nymphs. The samples were assessed for mortality and growth inhibition in comparison to untreated samples 5 days after infestation.

[7] = tested on: Tetranychus urticae; assay: Tetranychus urticae (two-spotted spider mite) leaf disc test; conditions: foliar, 192 h, read-out: control (mortality on mixed population, mobile stages)
Description: Tetranychus urticae (Two-Spotted Spider Mite):
as §1, with “Bean” for “Sunflower”, “discs” for “discs were placed”, “were” for “and”, “mite” for “thrips”, “on mixed population (mobile stages) 8” for “6”

[8] = application rate 200 ppm, maize sprouts sprayed, L2 larvae, 4 days after infestation
[9] = application rate 200 ppm, artificial diet, L2 larvae, 5 days after infestation
[10] = application rate 200 ppm, sunflower leaf discs sprayed, mixed ages, 6 days after infestation
[11] = application rate 200 ppm, sunflower leaf discs sprayed, mixed ages, 6 DAT
[12] = application rate 200 ppm, soybean leaves sprayed, N2 nymphs, 5 days after infestation
[13] = application rate 200 ppm, bean leaf discs sprayed, 8 days after infestation

Cn1nc(OS(=O)(=O)C(F)(C(F)(F)F)C(F)(F)F)c(C(F)(F)F)c1-c1cc(-c2ccc(Cl)c(C(=O)NC3(C#N)CC3)c2)on1 [Compound 36, [5-[5-[4-chloro-3-[(1-cyanocyclopropyl)carbamoyl]phenyl]isoxazol-3-yl]-1-methyl-4-(trifluoromethyl)pyrazol-3-yl] 1,1,1,2,3,3,3-heptafluoropropane-2-sulfonate]
≥ 80%: percent control (mortality, anti-feedant effect or growth inhibition) at 200 ppm [1] | mortality at 200 ppm [2, 8] | mortality at 200 ppm [3, 9] | mortality at 200 ppm [4, 10] | mortality at 200 ppm [5, 11] | mortality at 200 ppm [6, 12] | mortality at 200 ppm [7, 13]

CC(=O)N(C(=O)c1cc(-c2cnn(-c3c(C(F)(F)F)c(OS(=O)(=O)C(F)(C(F)(F)F)C(F)(F)F)nn3C)c2)ccc1Cl)C1(C#N)CC1 [Compound 46, [5-[4-[3-[acetyl-(1-cyanocyclopropyl)carbamoyl]-4-chloro-phenyl]pyrazol-1-yl]-1-methyl-4-(trifluoromethyl)pyrazol-3-yl] 1,1,1,2,3,3,3-heptafluoropropane-2-sulfonate]
≥ 80%: percent control (mortality, anti-feedant effect or growth inhibition) at 200 ppm [1] | mortality at 200 ppm [2, 8] | mortality at 200 ppm [3, 9] | mortality at 200 ppm [4, 10] | mortality at 200 ppm [5, 11] | mortality at 200 ppm [6, 12] | mortality at 200 ppm [7, 13]

Cn1nc(OS(=O)(=O)C(F)(C(F)(F)F)C(F)(F)F)c(C(F)(F)F)c1-c1cc(-c2ccc(Cl)c(C(=O)NC3CC3)c2)on1 [Compound 33, [5-[5-[4-chloro-3-(cyclopropylcarbamoyl)phenyl]isoxazol-3-yl]-1-methyl-4-(trifluoromethyl)pyrazol-3-yl] 1,1,1,2,3,3,3-heptafluoropropane-2-sulfonate]
≥ 80%: percent control (mortality, anti-feedant effect or growth inhibition) at 200 ppm [1] | mortality at 200 ppm [2, 8] | mortality at 200 ppm [3, 9] | mortality at 200 ppm [4, 10] | mortality at 200 ppm [5, 11] | mortality at 200 ppm [6, 12] | mortality at 200 ppm [7, 13]

COC(=O)N(C(=O)c1cc(-c2cnn(-c3c(C(F)(F)F)c(OS(=O)(=O)C(F)(C(F)(F)F)C(F)(F)F)nn3C)c2)ccc1Cl)C1(C#N)CC1 [Compound 52, [5-[4-[4-chloro-3-[(1-cyanocyclopropyl)-methoxycarbonyl-carbamoyl]phenyl]pyrazol-1-yl]-1-methyl-4-(trifluoromethyl)pyrazol-3-yl] 1,1,1,2,3,3,3-heptafluoropropane-2-sulfonate]
≥ 80%: percent control (mortality, anti-feedant effect or growth inhibition) at 200 ppm [1] | mortality at 200 ppm [2] | mortality at 200 ppm [3] | mortality at 200 ppm [4] | mortality at 200 ppm [5] | mortality at 200 ppm [6] | mortality at 200 ppm [7]

CCOC(=O)N(C(=O)c1cc(-c2cnn(-c3c(C(F)(F)F)c(OS(=O)(=O)C(F)(C(F)(F)F)C(F)(F)F)nn3C)c2)ccc1Cl)C1(C#N)CC1 [Compound 51, [5-[4-[4-chloro-3-[(1-cyanocyclopropyl)-ethoxycarbonyl-carbamoyl]phenyl]pyrazol-1-yl]-1-methyl-4-(trifluoromethyl)pyrazol-3-yl] 1,1,1,2,3,3,3-heptafluoropropane-2-sulfonate]
≥ 80%: percent control (mortality, anti-feedant effect or growth inhibition) at 200 ppm [1] | mortality at 200 ppm [2] | mortality at 200 ppm [3] | mortality at 200 ppm [4] | mortality at 200 ppm [5] | mortality at 200 ppm [6] | mortality at 200 ppm [7]

Cn1nc(OS(=O)(=O)C(F)(F)C(F)(F)Cl)c(C(F)(F)F)c1-n1cc(-c2ccc(Cl)c(C(=O)NC3CC3)c2)cn1 [Compound 9, [5-[4-[4-chloro-3-(cyclopropylcarbamoyl)phenyl]pyrazol-1-yl]-1-methyl-4-(trifluoromethyl)pyrazol-3-yl] 2-chloro-1,1,2,2-tetrafluoro-ethanesulfonate]
≥ 80%: percent control (mortality, anti-feedant effect or growth inhibition) at 200 ppm [1] | mortality at 200 ppm [2, 8] | mortality at 200 ppm [3, 9] | mortality at 200 ppm [4, 10] | mortality at 200 ppm [5, 11] | mortality at 200 ppm [6, 12] | mortality at 200 ppm [7, 13]

CC(C)C(=O)N(C(=O)c1cc(-c2cnn(-c3c(C(F)(F)F)c(OS(=O)(=O)C(F)(C(F)(F)F)C(F)(F)F)nn3C)c2)ccc1Cl)C1(C#N)CC1 [Compound 60, [5-[4-[4-chloro-3-[(1-cyanocyclopropyl)-(2-methylpropanoyl)carbamoyl]phenyl]pyrazol-1-yl]-1-methyl-4-(trifluoromethyl)pyrazol-3-yl] 1,1,1,2,3,3,3-heptafluoropropane-2-sulfonate]
≥ 80%: percent control (mortality, anti-feedant effect or growth inhibition) at 200 ppm [1] | mortality at 200 ppm [2, 8] | mortality at 200 ppm [3, 9] | mortality at 200 ppm [4, 10] | mortality at 200 ppm [5, 11] | mortality at 200 ppm [6, 12] | mortality at 200 ppm [7, 13]

CN(C(=O)c1cc(-c2cc(-c3c(C(F)(F)F)c(OS(=O)(=O)C(F)(C(F)(F)F)C(F)(F)F)nn3C)no2)ccc1Cl)C1CC1 [Compound 34, [5-[5-[4-chloro-3-[cyclopropyl(methyl)carbamoyl]phenyl]isoxazol-3-yl]-1-methyl-4-(trifluoromethyl)pyrazol-3-yl] 1,1,1,2,3,3,3-heptafluoropropane-2-sulfonate]
≥ 80%: percent control (mortality, anti-feedant effect or growth inhibition) at 200 ppm [1] | mortality at 200 ppm [2, 8] | mortality at 200 ppm [3, 9] | mortality at 200 ppm [4, 10] | mortality at 200 ppm [5, 11] | mortality at 200 ppm [6, 12] | mortality at 200 ppm [7, 13]

Reference: patent publication US11071300B2, “Pesticidally active pyrazole derivatives” (SYNGENTA PARTICIPATIONS AG, priority 2017, dated 2021)
